Measurements published in patent US4362727A, “5-Substituted 9-cyanomethylene-dithieno[3,4-b:4,3-e]-azepines and therapeutic agents which contain these compounds” (priority 1981, dated 1982).

Columns and labels:
[1] = tested on: tonic extension reflex in the gastrocnemius; assay: Muscle-relaxing action (tonic extension reflex); type: in vivo, rabbits; conditions: rabbit, intravenous; for Muscle relaxation R.E.: clozapine = 1.0
Protocol: 2. […] The rabbit is kept in a special apparatus which allows it to flex its paw at the talocalcanean joint in a defined and reproducible manner. The flexing triggers off a tonic extension reflex in the calf muscles. The electrical activity of the muscle during the contraction is recorded, and the individual pulses are counted. The extension (lasting 5 seconds) is repeated at intervals of one minute. […] The numbers of pulses following the administration are compared with the initial values.

[2] = tested on: orientation hypermotility; assay: Sedative action (orientation hypermotility); type: in vivo, female NMRI mice; conditions: mice, oral; clozapine = 1.0
Protocol: 4-8 groups each of 3 female NMRI mice are given the compound orally. The orientation hypermotility induced by a new environment is determined photoelectrically, for a period of 30 minutes, starting 30 minutes after administration of the substances.

[3] = tested on: methamphetamine-induced sniffing movements; assay: Antimethamphetamine action (methamphetamine antagonism); type: in vivo; conditions: rats, intraperitoneal; clozapine = 1.0
Protocol: 3. Antimethamphetamine action
Methamphetamine.HCl (2.5 mg/kg administered intravenously) regularly causes the following symptoms in rats: motor restlessness, searching and sniffing movements, fur standing on end, and tremor (Janssen et al., Arzneim.-Forsch./Drug Res. 13 (1963), 205; and Randrup et al., Psychopharmacologia 11 (1967), 300). The test substances are administered intraperitoneally 30 minutes before methamphetamine. The substance is considered to have an effect if no sniffing movements are observed for a period of 5 minutes after the injection of methamphetamine. The mean inhibition dose (ED50%) is determined, by means of probit analysis, as the dose which prevents the occurrence of the symptom in half the animals.

[4] = tested on: pilocarpine-induced scratching movements; assay: Anticholinergic action on the central nervous system (pilocarpine); type: in vivo; conditions: rats, intraperitoneal; clozapine = 1.0
Protocol: 4. Anticholinergic action on the central nervous system
To test the anticholinergic action on the central nervous system, cholinergic stimulation is triggered off by pilocarpine. After rapid intravenous injection of pilocarpine.HCl (50 mg/kg) rats display alternating scratching movements of their rear paws; further symptoms triggered off in the central nervous system are jaw movements and tremors. […] The test substances are administered intraperitoneally 30 minutes before pilocarpine. The substance is considered to have an effect if no scratching is observed for a period of 2 minutes after the injection of pilocarpine. For this symptom, the mean inhibition dose (ED50%) is determined, by means of probit analysis by the method of Finney, as the dose of the test substance which suppresses the scratching in half the animals.

Row | SMILES | Muscle relaxation R.E. [1] | Sedation R.E. [2] | Methamphetamine antagonism R.E. [3] | Anticholinergic action on the central nervous system R.E. [4] | ED50 ([1]; Oryctolagus cuniculus, pulses compared with initial values, read-out: Muscle relaxation ED 50%) [mg/kg]
1 | CN1CCN(C2=Nc3c(csc3Cl)C(=CC#N)c3cscc32)CC1 (mixture of isomers) [Example 2, Cis/trans-3-chloro-9-cyanomethylene-5-(4-methylpiperazin-1-yl)-dithieno[3,4-b:4',3'-e]azepine] | 0.56 | 0.49 | – | – | –
2 | CCN1CCN(C2=Nc3cscc3C(=CC#N)c3cscc32)CC1 (mixture of isomers) [Example 6, Cis/trans-9-cyanomethylene-5-(4-ethyl-piperazin-1-yl)dithieno[3,4-b:4',3'-e]azepine] | 0.21 | 0.44 | 0.88 | – | –
3 | CN1CCN(C2=Nc3cc(Cl)ccc3Nc3ccccc32)CC1 [Clozapine] | 1.0 | 1.0 | 1.0 | 1.0 | 0.046
4 | CN1CCN(C2=Nc3cscc3C(=CC#N)c3cscc32)CC1 [Example 1a, 9-cyanomethylene-5-(4-methyl-piperazin-1-yl)-dithieno[3,4-b:4',3'-e]azepine] | 0.33 | 0.64 | – | 1.1 | –
5 | CN1CCN(C2=Nc3ccccc3Cc3ccccc32)CC1 [Perlapine] | 0.42 | – | 1.2 | 0.22 | –
